In patent US8153637B2, “Phenyl-alkyl piperazines having TNF-modulating activity, preparation method, and therapeutic use thereof” (Sanofi, priority 2008, dated 2012):

System: TNF-α
Test: Synthesis of TNF-α induced in Balb/c mice by LPS from Escherichia coli
Format: in vivo
Conditions: female Balb/c mice, oral administration; LPS i.v. 10 μg/mouse one hour later; plasma TNF-α 1.5 hours after LPS
Description: The test products are administered orally to groups of five 7- to 8-week-old female Balb/c mice (Charles River, France). One hour later, LPS is administered intravenously (10 μg/mouse). The blood of each animal is collected 1.5 hours after the LPS administration. The samples are centrifuged, and the plasma is recovered and frozen at −80° C. The TNF-α is measured using commercial kits (R & D, Abingdon, UK).
In the case of CCCCCc1cc(CCN2CCN(c3cccc(C(F)(F)F)c3)CC2)ccc1C.O=C(O)CCC(=O)O [compound 38, 1-(3-trifluoromethylphenyl)-4-[2-(4-methyl-3-pentyl-phenyl)ethyl]piperazine succinate], the “IC50, inhibiting the synthesis of TNF-α” value is reported as 0.1 mg/kg.

System: tactile allodynia after spare nerve injury
Test: Model of neuropathic pain: anti-allodynic effect in the spare nerve injury (SNI), von Frey test
Format: in vivo
Conditions: male C57B6 mice, 7 days after surgery, 1 mg/kg i.v., from 1 h to 6 h after administration
Description: The compounds of the invention are also tested in a model of neuropathic pain: measurement of the anti-allodynic effect in the spare nerve injury (SNI).
In this in vivo model of mice suffering from chronic neuropathic pain, the effect on tactile allodynia, a painful sensation induced after a mechanical stimulus not normally painful, is triggered in the hind leg by surgical lesion of the great sciatic nerve. It is then determined by measuring the paw withdrawal threshold (PWT), i.e. the applied force (expressed in grams) at which the mouse withdraws its hind leg.
Tactile allodynia is determined on both hind legs, i.e. homolaterally and controlaterally to the lesion determined following surgery, with the automatic von Frey test, in which the plantar skin of the hind legs is exposed to a pressure stimulus of increasing intensity reaching 5 grams, using a discharge needle prod. […]
Trial groups using the compounds according to the invention and a control group of animals were used, each being composed of four male C57B6 mice. In each group, the baseline of the PWT values (BL) was determined before surgery. […]
7 days after surgery, just before the administration of the compound, i.e. at 0 h, and in all the groups, the PWT values were determined for the homolateral hind leg (injured) and the controlateral hind leg (non-injured). […]
For CCCCCc1cc(CCN2CCN(c3cccc(C(F)(F)F)c3)CC2)ccc1C.CCCCCc1cc(CCN2CCN(c3cccc(C(F)(F)F)c3)CC2)ccc1C.O=C(O)c1cc2ccccc2c(Cc2c(O)c(C(=O)O)cc3ccccc23)c1O [compound 1, 1-(3-trifluoromethylphenyl)-4-[2-(4-methyl-3-pentylphenyl)ethyl]piperazine hemipamoate], the “reduction of pain (anti-allodynic effect, paw withdrawal threshold PWT)” value was “statistically significant reduction of pain”.

System: TNF-α
Test: Synthesis of TNF-α induced in Sprague-Dawley rats by LPS from Escherichia coli
Format: in vivo
Conditions: male Sprague-Dawley rats, oral administration; LPS i.v. 0.1 mg/Kg two hours later; serum TNF-α 1.5 hours after LPS
Description: The test products are administered orally to groups of ten male Sprague-Dawley rats weighing about 200 grams. Two hours later, LPS is administered intravenously (0.1 mg/Kg). The blood of each animal is collected 1.5 hours after the LPS administration. The samples are centrifuged, and the serum is recovered and frozen at −80° C. The TNF-α is measured using commercial kits (RPN 2744 Amersham, UK).
In the case of CCCCCc1cc(CCN2CCN(c3cccc(C(F)(F)F)c3)CC2)ccc1C.CCCCCc1cc(CCN2CCN(c3cccc(C(F)(F)F)c3)CC2)ccc1C.O=C(O)c1cc2ccccc2c(Cc2c(O)c(C(=O)O)cc3ccccc23)c1O [compound 1, 1-(3-trifluoromethylphenyl)-4-[2-(4-methyl-3-pentylphenyl)ethyl]piperazine hemipamoate], the “IC50, inhibiting the synthesis of TNF-α” value is reported as 0.3 mg/kg. For CCCCCc1cc(CCN2CCN(c3cccc(F)c3)CC2)ccc1C.Cl [compound 4, 1-(3-fluorophenyl)-4-[2-(4-methyl-3-pentylphenyl)ethyl]-piperazine hydrochloride], the “IC50, inhibiting the synthesis of TNF-α” value was 1 mg/kg. With CCCCCc1cc(CCN2CCN(c3cccc(C(F)F)c3)CC2)ccc1C.Cl [compound 8, 1-(3-difluoromethylphenyl)-4-[2-(4-methyl-3-pentylphenyl)-ethyl]piperazine hydrochloride] the “IC50, inhibiting the synthesis of TNF-α” value was 1 mg/kg.

System: not given
Test: not given
Conditions: not given
CCCCCc1cc(CCN2CCN(c3cccc(OC)c3)CC2)ccc1C.Cl showed a melting point of 199 to 201 °C. In the case of CCCCCc1cc(CCN2CCN(c3cccc(C(F)F)c3)CC2)ccc1OC.Cl, the melting point is reported as 125 to 128 °C. Work on CCCCCCCc1cc(CCN2CCN(c3cccc(C(F)(F)F)c3)CC2)ccc1OC.Cl yielded a melting point of 214 °C. With CCCCCCc1cc(CCN2CCN(c3cccc(C(F)(F)F)c3)CC2)ccc1C.Cl the melting point was 187 °C. CCCc1cc(CCN2CCN(c3cccc(C(F)(F)F)c3)CC2)ccc1OC.Cl showed a melting point of 184 to 185 °C. For CCCCCc1cc(CCN2CCN(c3ccc(Cl)cc3)CC2)ccc1C.Cl, the melting point was 203 °C. CCCCCc1cc(CCN2CCN(c3cccc(C(F)(F)F)c3)CC2)ccc1OC.Cl showed a melting point of 146 to 149 °C. For CCCCCc1cc(CCN2CCN(c3ccc(F)cc3)CC2)ccc1C.Cl.Cl, the melting point was > 201 °C. CCCCCc1cc(CCN2CCN(c3ccc(Br)cn3)CC2)ccc1C.Cl.Cl gave a melting point of 190 to 192 °C. In the case of CCCCCc1cc(CCN2CCN(c3ccc(C(F)(F)F)cn3)CC2)ccc1C.Cl.Cl, the melting point is reported as > 212 °C. CCCCCc1cc(CCN2CCN(c3ccc(C(C)(C)C)cc3)CC2)ccc1C.Cl gave a melting point of 193 to 195 °C. CCCCCc1cc(CCN2CCN(c3ccc(OCC)cc3)CC2)ccc1C.Cl.Cl showed a melting point of 228 to 230 °C. CCCCCc1cc(CCN2CCN(c3cccc(C)c3)CC2)ccc1C.Cl.Cl showed a melting point of 226 to 228 °C. For CCCc1cc(CCN2CCN(c3cccc(C(F)(F)F)c3)CC2)ccc1C.Cl, the melting point was 198 to 200 °C. CCCCCc1cc(CCN2CCN(c3ccccn3)CC2)ccc1C.Cl.Cl showed a melting point of 183 to 185 °C. Work on CCCCCc1cc(CCN2CCN(c3cccc(Br)n3)CC2)ccc1C.Cl yielded a melting point of 185 to 187 °C. Work on CCCCCc1cc(CCN2CCN(c3ccccc3Cl)CC2)ccc1C.Cl yielded a melting point of 200 to 202 °C. Work on CCCCCc1cc(CCN2CCN(c3ccccc3C)CC2)ccc1C.Cl yielded a melting point of 220 to 222 °C. CCCCCc1cc(CCN2CCN(c3cccc(OC(F)(F)F)c3)CC2)ccc1C.Cl showed a melting point of 197 to 200 °C. In the case of CCCCCc1cc(CCN2CCN(c3ccc(Cl)cn3)CC2)ccc1C.Cl, the melting point is reported as 199 to 201 °C. Work on CCCCCCCc1cc(CCN2CCN(c3cccc(C(F)(F)F)c3)CC2)ccc1C.Cl yielded a melting point of 190 to 192 °C. CCCCCc1cc(CCN2CCN(c3cccc(C(F)(F)F)n3)CC2)ccc1C.Cl gave a melting point of 161 to 163 °C. For CCCCCc1cc(CCN2CCN(c3cccc(F)c3)CC2)ccc1OC.Cl, the melting point was 174 to 177 °C. Compound CCCCCc1cc(CCN2CCN(c3ccccc3)CC2)ccc1C.Cl has a melting point of 200 to 202 °C. With CCCCCc1cc(CCN2CCN(c3cccc(F)c3)CC2)ccc1C.Cl [compound 4, 1-(3-fluorophenyl)-4-[2-(4-methyl-3-pentylphenyl)ethyl]-piperazine hydrochloride] the melting point was 215 to 217 °C. With CCCCCc1cc(CCN2CCN(c3cccc(C(F)F)c3)CC2)ccc1C.Cl [compound 8, 1-(3-difluoromethylphenyl)-4-[2-(4-methyl-3-pentylphenyl)-ethyl]piperazine hydrochloride] the melting point was 182 to 185 °C.

System: Zymosan-induced knee joint inflammation / hyperalgesia
Test: Model of joint inflammation: Zymosan-induced knee joint inflammation, secondary hyperalgesia (plantar test)
Format: in vivo
Conditions: male hamster, 1 ng/joint injected into the joint one hour before first Zymosan injection; 3 Zymosan injections; measured from 4 hours and during following 3 weeks
Description: The compounds of the invention are tested in a model of joint inflammation.
The compound (1 ng/joint as a suspension in 10 μL of a solution of 2% PVP (polyvinylpyrrolidone)/1% lutrol F68/0.9% NaCl) according to the invention is injected one hour before the first injection of Zymosan® (see below) into the joint of a hamster.
Induction of a knee joint inflammation: Under light anaesthesia using isofluran, a suspension of Zymosan® at a dose of 100 μg in 10 μL of saline solution is injected into the knee joint of a male hamster. Zymosan® is a yeast extract which produces a strong dose-dependent inflammation when subcutaneously injected. Under the experimental conditions described herein (injection into the knee joint), it induces a hyperalgesia lasting for a week. In order to extend this period, 3 consecutive injections of Zymosan® were applied. The lag time to paw withdrawal, following exposure of the plantar skin to a defined heat stimulus, is measured using apparatus (Plantar Test Ugo Basile Biological Research Apparatus, Comerio, Italy) comprising a mini-camera to ensure the correct positioning of the infrared ray below the hind leg of interest.
Measurement of Secondary Hyperalgesia:
The timer, which measures the length of time the infrared light is reflected by the hind leg, is started by the investigator and stops automatically as soon as the animal shakes or pulls away its leg. […]
With CCCCCc1cc(CCN2CCN(c3cccc(C(F)(F)F)c3)CC2)ccc1C.CCCCCc1cc(CCN2CCN(c3cccc(C(F)(F)F)c3)CC2)ccc1C.O=C(O)c1cc2ccccc2c(Cc2c(O)c(C(=O)O)cc3ccccc23)c1O [compound 1, 1-(3-trifluoromethylphenyl)-4-[2-(4-methyl-3-pentylphenyl)ethyl]piperazine hemipamoate] the “reduction of pain (lag time to leg withdrawal, secondary hyperalgesia)” value was “effective reduction of pain over a 3-week period”.
